{"source": "patent US9958439B2", "about": "“Carbohydrate detection” (RICHTER LIFE SCIENCE DEVELOPMENT AB, priority 2012, dated 2018)", "key": {"[1]": {"settings": "for RFU change (Correlation analysis): probe-specific excitation λ, emission 545 nm", "in_short": "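Each LCO probe at 3 μM was added to two-fold serial dilutions of carbohydrate in dH2O (10–0.039 mg/ml for β-1,3-glucan, cellulose, chitin; 5–0.019 mg/ml for the others), run in triplicate. Excitation spectra were scanned 300–500 nm with emission at 545 nm. Detection was a reproducible λmax and/or RFU shift versus negative control, with linear regression of RFU against concentration.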"}, "[2]": {"in_short": "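LCO probes (3 μM) were added to serial two-fold dilutions of carbohydrate suspensions in dH2O, with excitation scanned 300–500 nm and emission at 545 nm. Detection was a reproducible λmax and/or RFU change versus no-carbohydrate control. RFU was regressed linearly against concentration at the λmax or the lowest-background excitation.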"}, "[3]": {"settings": "for RFU change (Correlation analysis): probe-specific excitation λ, emission 545 nm", "in_short": "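LCO probes at 3 μM mixed with serial two-fold dilutions of carbohydrate in dH2O (10–0.039 or 5–0.019 mg/ml, depending on carbohydrate), in triplicate. Excitation scanned 300–500 nm or fixed per probe (λmax or lowest background), emission at 545 nm. Detection taken as reproducible λmax/RFU shift vs no-carbohydrate control; RFU regressed linearly on concentration.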", "remark": "listed apart in the source"}, "[4]": {"settings": "for RFU change (Correlation analysis): probe-specific excitation λ, emission 545 nm; for Gradient Parameters (gradient of regression line) / Linear relationship / Quality of Gradient: linear regression", "in_short": "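LCO probes at 3 μM mixed with serial twofold carbohydrate dilutions in dH2O (10–0.039 or 5–0.019 mg/ml, depending on carbohydrate). Excitation scanned 300–500 nm, emission read at 545 nm; detection defined as reproducible shift in λmax and/or RFU relative to negative control, with linear regression of RFU against concentration.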"}, "[5]": {"in_short": "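3 μM of each LCO probe was added to serial two-fold carbohydrate dilutions in water (10–0.039 or 5–0.019 mg/ml). Excitation spectra were scanned 300–500 nm with emission at 545 nm, in triplicate. Detection was defined as a reproducible shift in λmax and/or RFU versus negative control, with linear regression of RFU against concentration.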", "remark": "listed apart in the source"}, "[6]": {"in_short": "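LCO probes at 3 μM mixed with serial two-fold carbohydrate dilutions in water (10–0.039 or 5–0.019 mg/ml), run in triplicate. Excitation scanned 300–500 nm with emission at 545 nm; detection based on reproducible λmax or RFU shift against the no-carbohydrate control, with linear regression of RFU on concentration.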", "remark": "listed apart in the source"}, "[7]": {"settings": "Chitin 10-[…], 3 μM probe, spectral analysis, Excitation 300-500, Emission 545"}, "[8]": {"settings": "cellulose concentration vs RFU, linear regression"}, "[9]": {"settings": "chitin concentration vs RFU, linear regression"}, "[10]": {"settings": "β-1,3-glucan concentration vs RFU, linear regression"}, "[11]": {"settings": "sodium alginate concentration vs RFU, linear regression"}, "[12]": {"settings": "Cellulobiose 5-0.019 mg/ml, 3 μM probe, spectral analysis, Excitation 300-500, Emission 545"}, "[13]": {"settings": "amylose concentration vs RFU, linear regression"}, "[14]": {"settings": "cellulobiose concentration vs RFU, linear regression"}, "[15]": {"settings": "Glycogen 5-0.019 mg/ml, 3 μM probe, spectral analysis, Excitation 300-500, Emission 545"}, "[16]": {"settings": "Chondroitin Sulfate A 5-0.019 mg/ml, 3 μM probe, spectral analysis, Excitation 300-500, Emission 545"}, "[17]": {"settings": "Chondroitin Sulfate A concentration vs RFU, linear regression"}, "[18]": {"settings": "glucose concentration vs RFU, linear regression"}}, "note": "Like-named read-outs stand apart in the source and are kept apart here."}
{"smiles": "O=C(Cc1cc(-c2cccs2)sc1-c1ccc(-c2sc(-c3cccs3)cc2CC(=O)N[C@@H](Cc2ccc([O-])cc2)C(=O)[O-])s1)N[C@@H](Cc1ccc([O-])cc1)C(=O)[O-].[Na+].[Na+].[Na+].[Na+]", "note": "[pHTA-Tyr, penta Hydrogen Thiophene Acetic acid Tyrosine]", "values": [{"measurement": "RFU change (Correlation analysis)", "setting": "[1]; Cellulose 10-[…], 3 μM probe", "result": "Unclear"}, {"measurement": "RFU change (Signal deviation with increasing [Carbohydrate])", "setting": "[1]; Cellulose 10-[…], 3 μM probe, spectral analysis, Excitation 300-500, Emission 545", "result": "Unclear"}, {"measurement": "RFU change (Correlation analysis)", "setting": "[1]; Chitin 10-[…], 3 μM probe", "result": "Increases"}, {"measurement": "RFU change (Signal deviation with increasing [Carbohydrate])", "setting": "[1]; [7]", "result": "Increases"}, {"measurement": "λmax change", "setting": "[1]; [7]", "result": "Redshift"}, {"measurement": "carbohydrate can be detected and/or differentiated by the LCO", "setting": "[1]; Chitin, conclusion from change in signal magnitude and/or shift in λmax", "result": "can be detected and/or differentiated"}, {"measurement": "Gradient Parameters (gradient of regression line)", "setting": "[1]; [8]", "result": "−51.4 ± 45.0"}, {"measurement": "Quality of Gradient", "setting": "[1]; [8]", "result": "Horizontal"}, {"measurement": "Gradient Parameters (gradient of regression line)", "setting": "[1]; [9]", "result": "972.3 ± 109.7"}, {"measurement": "Linear relationship", "setting": "[1]; [9]", "result": "Significant"}, {"measurement": "Quality of Gradient", "setting": "[1]; [9]", "result": "Positive"}, {"measurement": "Sensitivity", "setting": "[1]; to cellulose", "result": "No"}, {"measurement": "Sensitivity", "setting": "[1]; to chitin", "result": "Yes"}, {"measurement": "Sensitivity", "setting": "[1]; to β-1,3-glucan", "result": "No"}, {"measurement": "RFU change (Correlation analysis)", "setting": "[1]; β-1,3-glucan 10-[…], 3 μM probe", "result": "Decrease"}, {"measurement": "RFU change (Signal deviation with increasing [Carbohydrate])", "setting": "[1]; β-1,3-glucan 10-[…], 3 μM probe, spectral analysis, Excitation 300-500, Emission 545", "result": "Decrease"}, {"measurement": "Gradient Parameters (gradient of regression line)", "setting": "[1]; [10]", "result": "−53.2 ± 47.5"}, {"measurement": "Quality of Gradient", "setting": "[1]; [10]", "result": "Horizontal"}, {"measurement": "RFU change (Correlation analysis)", "setting": "[2]; Sodium alginate 5-0.019 mg/ml, 3 μM probe, probe-specific excitation λ, emission 545 nm", "result": "Unclear"}, {"measurement": "RFU change (Signal deviation with increasing [Carbohydrate])", "setting": "[2]; Sodium alginate 5-0.019 mg/ml, 3 μM probe, spectral analysis, Excitation 300-500, Emission 545", "result": "Increases"}, {"measurement": "Gradient Parameters (gradient of regression line)", "setting": "[2]; [11]", "result": "30.9 ± 175.5"}, {"measurement": "Quality of Gradient", "setting": "[2]; [11]", "result": "Horizontal"}, {"measurement": "Sensitivity", "setting": "[2]; to sodium alginate", "result": "No"}, {"measurement": "RFU change (Correlation analysis)", "setting": "[3]; Amylose 5-0.019 mg/ml, 3 μM probe", "result": "Unclear"}, {"measurement": "RFU change (Signal deviation with increasing [Carbohydrate])", "setting": "[3]; Amylose 5-0.019 mg/ml, 3 μM probe, spectral analysis, Excitation 300-500, Emission 545", "result": "Unclear"}, {"measurement": "RFU change (Correlation analysis)", "setting": "[3]; Cellulobiose 5-0.019 mg/ml, 3 μM probe", "result": "Increases"}, {"measurement": "RFU change (Signal deviation with increasing [Carbohydrate])", "setting": "[3]; [12]", "result": "Increases"}, {"measurement": "λmax change", "setting": "[3]; [12]", "result": "No change"}, {"measurement": "carbohydrate can be detected and/or differentiated by the LCO", "setting": "[3]; Cellulobiose, conclusion from change in signal magnitude and/or shift in λmax", "result": "can be detected and/or differentiated"}, {"measurement": "Gradient Parameters (gradient of regression line)", "setting": "[3]; [13]", "result": "−133.1 ± 128.5"}, {"measurement": "Quality of Gradient", "setting": "[3]; [13]", "result": "Horizontal"}, {"measurement": "Gradient Parameters (gradient of regression line)", "setting": "[3]; [14]", "result": "56.7 ± 16"}, {"measurement": "Linear relationship", "setting": "[3]; [14]", "result": "Significant"}, {"measurement": "Quality of Gradient", "setting": "[3]; [14]", "result": "Positive"}, {"measurement": "Sensitivity", "setting": "[3]; to amylose", "result": "No"}, {"measurement": "Sensitivity", "setting": "[3]; to cellulobiose", "result": "Yes"}, {"measurement": "RFU change (Correlation analysis)", "setting": "[4]; Glycogen 5-0.019 mg/ml, 3 μM probe", "result": "Decreases"}, {"measurement": "RFU change (Signal deviation with increasing [Carbohydrate])", "setting": "[4]; [15]", "result": "Decreases"}, {"measurement": "λmax change", "setting": "[4]; [15]", "result": "Redshift"}, {"measurement": "carbohydrate can be detected and/or differentiated by the LCO", "setting": "[4]; Glycogen, conclusion from change in signal magnitude and/or shift in λmax", "result": "can be detected and/or differentiated"}, {"measurement": "RFU change (Correlation analysis)", "setting": "[4]; Heparin 5-0.019 mg/ml, 3 μM probe", "result": "Increases"}, {"measurement": "RFU change (Signal deviation with increasing [Carbohydrate])", "setting": "[4]; Heparin 5-0.019 mg/ml, 3 μM probe, spectral analysis, Excitation 300-500, Emission 545", "result": "Increases"}, {"measurement": "Gradient Parameters (gradient of regression line)", "setting": "[4]; glycogen concentration vs RFU", "result": "−2062 ± 216.6"}, {"measurement": "Linear relationship", "setting": "[4]; glycogen concentration vs RFU", "result": "Significant"}, {"measurement": "Quality of Gradient", "setting": "[4]; glycogen concentration vs RFU", "result": "Negative"}, {"measurement": "Gradient Parameters (gradient of regression line)", "setting": "[4]; heparin concentration vs RFU", "result": "74.5 ± 80.7"}, {"measurement": "Linear relationship", "setting": "[4]; heparin concentration vs RFU", "result": "Not Significant"}, {"measurement": "Quality of Gradient", "setting": "[4]; heparin concentration vs RFU", "result": "Horizontal"}, {"measurement": "Sensitivity", "setting": "[4]; to glycogen", "result": "Yes"}, {"measurement": "Sensitivity", "setting": "[4]; to heparin", "result": "No"}, {"measurement": "RFU change (Correlation analysis)", "setting": "[5]; Chondroitin Sulfate A 5-0.019 mg/ml, 3 μM probe, probe-specific excitation λ, emission 545 nm", "result": "Increases"}, {"measurement": "RFU change (Signal deviation with increasing [Carbohydrate])", "setting": "[5]; [16]", "result": "Increases"}, {"measurement": "λmax change", "setting": "[5]; [16]", "result": "No change"}, {"measurement": "Gradient Parameters (gradient of regression line)", "setting": "[5]; [17]", "result": "163.3 ± 61.5"}, {"measurement": "Linear relationship", "setting": "[5]; [17]", "result": "Significant"}, {"measurement": "Quality of Gradient", "setting": "[5]; [17]", "result": "Positive"}, {"measurement": "carbohydrate can be detected and/or differentiated by the LCO", "setting": "[5]; Chondroitin sulfate A, conclusion from change in signal magnitude and/or shift in λmax", "result": "can be detected and/or differentiated"}, {"measurement": "Sensitivity", "setting": "[5]; to Chondroitin Sulfate A", "result": "Yes"}, {"measurement": "RFU change (Correlation analysis)", "setting": "[6]; Glucose 5-0.019 mg/ml, 3 μM probe, probe-specific excitation λ, emission 545 nm", "result": "Increases"}, {"measurement": "RFU change (Signal deviation with increasing [Carbohydrate])", "setting": "[6]; Glucose 5-0.019 mg/ml, 3 μM probe, spectral analysis, Excitation 300-500, Emission 545", "result": "Increases"}, {"measurement": "carbohydrate can be detected and/or differentiated by the LCO", "setting": "[6]; Glucose, conclusion from change in signal magnitude and/or shift in λmax", "result": "can be detected and/or differentiated"}, {"measurement": "Gradient Parameters (gradient of regression line)", "setting": "[6]; [18]", "result": "799.4 ± 95.1"}, {"measurement": "Linear relationship", "setting": "[6]; [18]", "result": "Significant"}, {"measurement": "Quality of Gradient", "setting": "[6]; [18]", "result": "Positive"}, {"measurement": "Sensitivity", "setting": "[6]; to glucose", "result": "Yes"}]}
